Measured values from patent US11339203B2, “Antitumor peptide and use thereof” (TOAGOSEI CO., LTD., priority 2018, dated 2022).
Like-named read-outs stand apart in the source and are kept apart here. Where no end group is shown, it is not given here.

Tests used:
Type in all cases: cell-based
[1] = test system: human kidney cancer cell line (CAKI2); settings: for Cell Viability (%): human, 48 h
Procedure: The antitumor activity of each sample peptide synthesized in above-mentioned Test Example 1 was evaluated targeted in human-derived cultured tumor cells. More specifically, a human kidney cancer cell line (CAKI2) that is currently commercially available was used for the test tumor cells. CAKI2 cells were cultured and adjusted to cell count of about 5×10^3 cells per single well of 96-well plate. The amount of medium at this time was made to be 100 μL per well. Next, the 96-well plate was arranged in a CO2 incubator and incubated for about 1 day (21 hours to 24 hours) under conditions of 37° C. and 5% CO2. Subsequently, peptide-containing test media were respectively prepared for each concentration so that the concentration of each sample peptide targeted for evaluation was 12.5 μM and 25 μM followed by supplying to the wells in which the cells targeted for evaluation were cultured (namely, the wells following the above-mentioned incubation) so that the amount of media was 90 μL per well. The 96-well plate was then returned to CO2 incubator followed by incubating for 48 hours under conditions of 37° C. and 5% CO2. The number of wells (n) at each concentration in each peptide addition test group was set to 3. Thus, the values of the results indicated in the following table are the average values of the results respectively obtained for 3 test wells. Cell viability (%) was determined in the manner described below. Following completion of incubation for 48 hours as described above, the medium in each well was replaced with 100 μL of fresh medium not containing peptide followed by further adding a reagent for measuring cell proliferation in the form of “Cell Counting Kit-8” (Dojindo Laboratories) containing “water-soluble tetrazolium salt (WST-8)” as a coloring reagent at 10 μL per well. Subsequently, the 96-well plate was again returned to CO2 incubator and incubated for 1.5 hours to 2 hours under conditions of 37° C. and 5% CO2. Following completion of incubation, cell viability (%) was evaluated using a colorimetric method consisting of recovering the cell culture liquid containing the above-mentioned reagent together with measuring absorbance at wavelength of 450 nm based on reduction of tetrazolium salt (value corrected for absorbance at a wavelength of 650 nm: A450 to A650). More specifically, the cell viability (%) of each test cell line was calculated from the measured absorbance as a relative value based on cell viability of 100% for the measured value (measured absorbance) of the comparison test group that underwent incubation for 48 hours as described above in only medium not containing peptide. McCoy's 5A medium (Gibco) containing 2 mM L-glutamine, 3,000 mg/L of glucose, 100 units/mL of penicillin, 100 μg/mL of streptomycin and 10% fetal bovine serum (FBS).

[2] = test system: human alveolar epithelial cell carcinoma cell line (A549); settings: 48 h
Procedure: (§1) CAKI2 cells were cultured and adjusted to cell count of about 5×10^3 cells per single well of 96-well plate. The amount of medium at this time was made to be 100 μL per well. Next, the 96-well plate was arranged in a CO2 incubator and incubated for about 1 day (21 hours to 24 hours) under conditions of 37° C. and 5% CO2. Subsequently, peptide-containing test media were respectively prepared for each concentration so that the concentration of each sample peptide targeted for evaluation was 12.5 μM and 25 μM followed by supplying to the wells in which the cells targeted for evaluation were cultured (namely, the wells following the above-mentioned incubation) so that the amount of media was 90 μL per well. The 96-well plate was then returned to CO2 incubator followed by incubating for 48 hours under conditions of 37° C. and 5% CO2. The number of wells (n) at each concentration in each peptide addition test group was set to 3. Thus, the values of the results indicated in the following table are the average values of the results respectively obtained for 3 test wells. Cell viability (%) was determined in the manner described below. Following completion of incubation for 48 hours as described above, the medium in each well was replaced with 100 μL of fresh medium not containing peptide followed by further adding a reagent for measuring cell proliferation in the form of “Cell Counting Kit-8” (Dojindo Laboratories) containing “water-soluble tetrazolium salt (WST-8)” as a coloring reagent at 10 μL per well. Subsequently, the 96-well plate was again returned to CO2 incubator and incubated for 1.5 hours to 2 hours under conditions of 37° C. and 5% CO2. Following completion of incubation, cell viability (%) was evaluated using a colorimetric method consisting of recovering the cell culture liquid containing the above-mentioned reagent together with measuring absorbance at wavelength of 450 nm based on reduction of tetrazolium salt (value corrected for absorbance at a wavelength of 650 nm: A450 to A650). More specifically, the cell viability (%) of each test cell line was calculated from the measured absorbance as a relative value based on cell viability of 100% for the measured value (measured absorbance) of the comparison test group that underwent incubation for 48 hours as described above in only medium not containing peptide. Antitumor activity was evaluated for Sample 2 in above-mentioned Test Example 1 targeted at multiple types of human-derived cultured tumor cells. […]

[3] = test system: human non-small cell lung cancer cell line (NCI-H2444); settings: 48 h
Procedure: as §1

FIGNLALSDLLAGVAYTANLLLKKRTLRKNDRKKR-NH2 [Sample 2]
antitumor activity (tumor cell proliferation inhibitory activity) ([1]; CAKI2 cells, result in words, among Samples 1 to 7): superior antitumor activity
Cell Viability (%) ([1]; 12.5 μM): 9.2%
Cell Viability (%) ([1]; 25 μM): 0.4%
Cell Viability (%) ([2]; 12.5 μM): 25.4%
Cell Viability (%) ([2]; 25 μM): 1.4%
Cell Viability (%) ([3]; 12.5 μM): 11%
Cell Viability (%) ([3]; 25 μM): 0.6%
